Measured values published in BigSolDB 2.1.

Nc1nc2ccc(OC(F)(F)F)cc2s1
solubility (mole fraction)
Settings | 278.15 K | 283.15 K | 288.15 K | 293.15 K | 298.15 K | 303.15 K | 308.15 K | 313.15 K | 318.15 K | 323.15 K
in 2-methoxyethanol | 0.383 | 0.398 | 0.405 | 0.419 | 0.428 | 0.436 | 0.449 | 0.459 | 0.469 | 0.478
in 2-propoxyethanol | 0.449 | 0.461 | 0.469 | 0.485 | 0.496 | 0.504 | 0.514 | 0.521 | 0.53 | 0.538
in DMAc | 0.0878 | 0.0968 | 0.106 | 0.116 | 0.129 | 0.142 | 0.156 | 0.17 | 0.188 | 0.203
in acetone | 0.371 | 0.379 | 0.387 | 0.401 | 0.414 | 0.425 | 0.437 | 0.449 | 0.464 | 0.477
in acetonitrile | 0.156 | 0.176 | 0.197 | 0.216 | 0.245 | 0.267 | 0.302 | 0.336 | 0.365 | 0.387
in ethanol | 0.179 | 0.188 | 0.198 | 0.212 | 0.222 | 0.236 | 0.254 | 0.273 | 0.294 | 0.308
in isopropyl acetate | 0.331 | 0.341 | 0.351 | 0.361 | 0.376 | 0.386 | 0.395 | 0.411 | 0.43 | 0.443
in n-butanol | 0.185 | 0.197 | 0.207 | 0.221 | 0.236 | 0.254 | 0.268 | 0.288 | 0.313 | 0.337
in n-pentanol | 0.197 | 0.205 | 0.216 | 0.231 | 0.249 | 0.264 | 0.281 | 0.303 | 0.325 | 0.342
in n-pentyl acetate | 0.348 | 0.356 | 0.365 | 0.374 | 0.385 | 0.395 | 0.408 | 0.425 | 0.439 | 0.46
in n-propanol | 0.179 | 0.189 | 0.202 | 0.215 | 0.23 | 0.249 | 0.267 | 0.287 | 0.312 | 0.333
in n-propyl acetate | 0.349 | 0.36 | 0.368 | 0.377 | 0.389 | 0.398 | 0.414 | 0.429 | 0.446 | 0.463
